In patent US9409905B2, “Antibacterial compounds and methods for use” (PTC THERAPEUTICS, INC., priority 2011, dated 2016):
In brackets after ≈: the same amount, converted by molar mass.

How the values were obtained:
E. coli 25922 = test: Antibacterial activity, microbroth dilution MIC (Table 1); type: cell-based, Escherichia coli; settings: Escherichia coli; microbroth dilution; control Gram-negative E. coli 25922 strain; read-out: MIC, 25922
Procedure, shortened: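 In a microbroth dilution test, the minimum inhibitory concentration was defined as the lowest compound level preventing growth seen by eye, and was given in μg/mL.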

[1] = tested on: Klebsiella pneumoniae (K. pneumoniae) 35657; test: Antibacterial activity, MIC (Table 4); type: cell-based; settings: K. pneumoniae 35657, read-out: MIC, 35657
Procedure, shortened: (§1)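 Activity was measured by microbroth dilution. The MIC, in μg/mL, is the lowest drug concentration that prevents macroscopically visible growth under the test conditions. The resistant strains are multi-drug resistant clinical isolates.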

[2] = tested on: Acinetobacter baumannii (A. baumannii) BAA747; test: Antibacterial activity, MIC (Table 4); type: cell-based; settings: A. baumannii BAA747, read-out: MIC, BAA747
Procedure, shortened: as §1

E. coli LZ3111 = test: Antibacterial activity, MIC, quinolone resistant strain (Table 2); type: cell-based; settings: Escherichia coli, LZ3111, read-out: MIC LZ3111
Procedure, shortened: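 Lowest concentration giving no macroscopically visible growth was taken as the MIC (μg/mL) after microbroth dilution testing.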

K. pneumoniae MXX1232 = test: Antibacterial activity, MIC, resistant strain (Table 4); type: cell-based; settings: Klebsiella pneumoniae, MXX1232; resistant K. pneumoniae MMX1232, multi-drug resistant clinical isolate; read-out: MIC, MMX1232
Procedure, shortened: as §1

A. baumannii MXX2240 = test: as above; type: cell-based; settings: Acinetobacter baumannii, MXX2240; resistant A. baumannii MMX2240, multi-drug resistant clinical isolate; read-out: MIC, MMX2240
Procedure, shortened: as §1

[3] = tested on: Escherichia coli (E. coli) BAS849; test: Antibacterial activity, microbroth dilution MIC (Table 1); type: cell-based; settings: microbroth dilution, super sensitive Gram-negative E. coli BAS849, read-out: MIC, BAS849
Procedure, shortened: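 Lowest concentration stopping macroscopically visible growth under test conditions, by broth microdilution, defines the MIC (μg/mL).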

[4] = tested on: Staphylococcus aureus (S. aureus) 29213; test: as above; type: cell-based; settings: microbroth dilution, Gram-positive S. aureus 29213, read-out: MIC, 29213
Procedure, shortened: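 Broth microdilution; endpoint = no macroscopic growth; value = lowest inhibiting concn, μg/mL.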

[5] = tested on: Pseudomonas aeruginosa (P. aeruginosa) 27853; test: Antibacterial activity, MIC (Table 5); type: cell-based; settings: P. aeruginosa 27853, read-out: MIC, 27853
Procedure, shortened: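 MIC in μg/mL from broth microdilution; endpoint is the lowest drug level giving no visible growth.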

SMILES: C=CC1C(O)=C(C(=O)O)C(=O)NC1c1ccc2c(ccn2C)c1 (stereo not drawn) [Cpd 375, 4-hydroxy-6-(1-methyl-1H-indol-5-yl)-2-oxo-5-vinyl-1,2,5,6-tetrahydropyridine-3-carboxylic acid]
- MIC (E. coli 25922): 12.5 to 150 µg/mL (≈ 40 to 480 µM)
- MIC [1]: 12.5 to 150 µg/mL (≈ 40 to 480 µM)
- MIC [2]: 12.5 to 150 µg/mL (≈ 40 to 480 µM)
- MIC (E. coli LZ3111): 1 to 3.5 µg/mL (≈ 3.2 to 11.2 µM)
- MIC (K. pneumoniae MXX1232): 12.5 to 150 µg/mL (≈ 40 to 480 µM)
- MIC (A. baumannii MXX2240): 1 to 3.5 µg/mL (≈ 3.2 to 11.2 µM)
- MIC [3]: < 1 µg/mL
- MIC [4]: 12.5 to 150 µg/mL (≈ 40 to 480 µM)
- MIC [5]: 12.5 to 150 µg/mL (≈ 40 to 480 µM)

SMILES: CCc1ccc2cc(-c3[nH]c(=O)c(C(=O)O)c(O)c3C)[nH]c2c1 [Cpd 387, 6-(6-ethyl-1H-indol-2-yl)-4-hydroxy-5-methyl-2-oxo-1,2-dihydropyridine-3-carboxylic acid]
- MIC (E. coli 25922): 12.5 to 150 µg/mL (≈ 40 to 480 µM)
- MIC [1]: 12.5 to 150 µg/mL (≈ 40 to 480 µM)
- MIC [2]: 12.5 to 150 µg/mL (≈ 40 to 480 µM)
- MIC (E. coli LZ3111): 12.5 to 150 µg/mL (≈ 40 to 480 µM)
- MIC (K. pneumoniae MXX1232): 12.5 to 150 µg/mL (≈ 40 to 480 µM)
- MIC (A. baumannii MXX2240): 12.5 to 150 µg/mL (≈ 40 to 480 µM)
- MIC [3]: 1 to 3.5 µg/mL (≈ 3.2 to 11.2 µM)
- MIC [4]: 12.5 to 150 µg/mL (≈ 40 to 480 µM)
- MIC [5]: 12.5 to 150 µg/mL (≈ 40 to 480 µM)

SMILES: CCc1c(-c2ccc3c(c2)c(F)c(CNC)n3C)[nH]c(=O)c(C(=O)O)c1O [Cpd 368, 5-ethyl-6-(3-fluoro-1-methyl-2-((methylamino)methyl)-1H-indol-5-yl)-4-hydroxy-2-oxo-1,2-dihydropyridine-3-carboxylic acid]
- MIC (E. coli 25922): 1 to 3.5 µg/mL (≈ 2.68 to 9.37 µM)
- MIC [1]: 1 to 3.5 µg/mL (≈ 2.68 to 9.37 µM)
- MIC [2]: 1 to 3.5 µg/mL (≈ 2.68 to 9.37 µM)
- MIC (E. coli LZ3111): 3.5 to 12.5 µg/mL (≈ 9.37 to 33.5 µM)
- MIC (K. pneumoniae MXX1232): 12.5 to 150 µg/mL (≈ 33.5 to 402 µM)
- MIC (A. baumannii MXX2240): 3.5 to 12.5 µg/mL (≈ 9.37 to 33.5 µM)
- MIC [3]: < 1 µg/mL
- MIC [4]: 12.5 to 150 µg/mL (≈ 33.5 to 402 µM)
- MIC [5]: 12.5 to 150 µg/mL (≈ 33.5 to 402 µM)

SMILES: CCNCc1cc2ccc(-c3[nH]c(=O)c(C(=O)O)c(O)c3CC)cc2[nH]1.Cl [Cpd 442, 5-ethyl-6-(2-((ethylamino)methyl)-1H-indol-6-yl)-4-hydroxy-2-oxo-1,2-dihydropyridine-3-carboxylic acid hydrochloride]
- MIC (E. coli 25922): 3.5 to 12.5 µg/mL
- MIC [1]: 3.5 to 12.5 µg/mL
- MIC [2]: 12.5 to 150 µg/mL
- MIC (E. coli LZ3111): 12.5 to 150 µg/mL
- MIC (K. pneumoniae MXX1232): 12.5 to 150 µg/mL
- MIC (A. baumannii MXX2240): 12.5 to 150 µg/mL
- MIC [3]: 1 to 3.5 µg/mL
- MIC [4]: 12.5 to 150 µg/mL
- MIC [5]: 12.5 to 150 µg/mL

SMILES: CCNCc1cc2cc(-c3[nH]c(=O)c(C(=O)O)c(O)c3C)ccc2n1C [Cpd 342, 6-(2-((ethylamino)methyl)-1-methyl-1H-indol-5-yl)-4-hydroxy-5-methyl-2-oxo-1,2-dihydropyridine-3-carboxylic acid]
- MIC (E. coli 25922): 1 to 3.5 µg/mL (≈ 2.81 to 9.85 µM)
- MIC [1]: < 1 µg/mL
- MIC [2]: 3.5 to 12.5 µg/mL (≈ 9.85 to 35.2 µM)
- MIC (E. coli LZ3111): < 1 µg/mL
- MIC (K. pneumoniae MXX1232): 12.5 to 150 µg/mL (≈ 35.2 to 422 µM)
- MIC (A. baumannii MXX2240): 1 to 3.5 µg/mL (≈ 2.81 to 9.85 µM)
- MIC [3]: < 1 µg/mL
- MIC [4]: 12.5 to 150 µg/mL (≈ 35.2 to 422 µM)
- MIC [5]: 12.5 to 150 µg/mL (≈ 35.2 to 422 µM)

SMILES: CCc1c(-c2ccc3c(c2)cc2n3CC(NC)CC2)[nH]c(=O)c(C(=O)O)c1O.Cl (stereo not drawn) [Cpd 414, 5-ethyl-4-hydroxy-6-(7-(methylamino)-6,7,8,9-tetrahydropyrido[1,2-a]indol-2-yl)-2-oxo-1,2-dihydropyridine-3-carboxylic acid hydrochloride]
- MIC (E. coli 25922): 1 to 3.5 µg/mL
- MIC [1]: < 1 µg/mL
- MIC [2]: 3.5 to 12.5 µg/mL
- MIC (E. coli LZ3111): 3.5 to 12.5 µg/mL
- MIC (K. pneumoniae MXX1232): 12.5 to 150 µg/mL
- MIC (A. baumannii MXX2240): 12.5 to 150 µg/mL
- MIC [3]: < 1 µg/mL
- MIC [4]: 12.5 to 150 µg/mL
- MIC [5]: 12.5 to 150 µg/mL

SMILES: CCc1c(-c2ccc3c4c([nH]c3c2)CCN(CC)C4)[nH]c(=O)c(C(=O)O)c1O [Cpd 452, 5-ethyl-6-(2-ethyl-2,3,4,5-tetrahydro-1H-pyrido[4,3-b]indol-7-yl)-4-hydroxy-2-oxo-1,2-dihydropyridine-3-carboxylic acid]
- MIC (E. coli 25922): < 1 µg/mL
- MIC [1]: 1 to 3.5 µg/mL (≈ 2.62 to 9.18 µM)
- MIC [2]: 12.5 to 150 µg/mL (≈ 32.8 to 393 µM)
- MIC (E. coli LZ3111): 12.5 to 150 µg/mL (≈ 32.8 to 393 µM)
- MIC (K. pneumoniae MXX1232): 12.5 to 150 µg/mL (≈ 32.8 to 393 µM)
- MIC (A. baumannii MXX2240): 12.5 to 150 µg/mL (≈ 32.8 to 393 µM)
- MIC [3]: < 1 µg/mL
- MIC [4]: 12.5 to 150 µg/mL (≈ 32.8 to 393 µM)
- MIC [5]: 12.5 to 150 µg/mL (≈ 32.8 to 393 µM)

SMILES: CCc1cc(C(=O)O)c(=O)[nH]c1-c1ccc2nccn2c1.Cl [Cpd 51, 5-ethyl-6-(imidazo[1,2-a]pyridin-6-yl)-2-oxo-1,2-dihydropyridine-3-carboxylic acid hydrochloride]
- MIC (E. coli 25922): 12.5 to 150 µg/mL
- MIC [1]: 12.5 to 150 µg/mL
- MIC [2]: 12.5 to 150 µg/mL
- MIC (E. coli LZ3111): 12.5 to 150 µg/mL
- MIC (K. pneumoniae MXX1232): 12.5 to 150 µg/mL
- MIC (A. baumannii MXX2240): 12.5 to 150 µg/mL
- MIC [3]: 12.5 to 150 µg/mL
- MIC [4]: 12.5 to 150 µg/mL
- MIC [5]: 12.5 to 150 µg/mL
